One test has as its target T1, CK2a2 (Homo sapiens, UniProt P19784).
T1 construct: made in house
The experiment in a line: Kinase competition binding assay, CK2a2. The following applies: Table 1 kinase panel. On the procedure:
(§1) Cannabis flavonoids and their analogs were subjected to kinase inhibition assay. The compounds were first screened at a single concentration of 10 μM in the primary assay. […]. To determine the kd or IC50 values, competition binding assays were established, authenticated and executed as described previously. Fabian et al., “A Small Molecule-Kinase Interaction Map For Clinical Kinase Inhibitors.”, Nat Biotechnol, 23(3):329-36, Epub (2005). See also, Karaman et al., “A Quantitative Analysis Of Kinase Inhibitor Selectivity”, Nat. Biotechnol. […] For most assays, kinases were fused to T7 phage strains (Fabian, supra) and for the other assays, kinases were produced in HEK-293 cells after which they were tagged with DNA for quantitative PCR detection. In general, full-length constructs were used for small, single domain kinases, and catalytic domain constructs for large multi-domain kinases. The binding assays utilized streptavidin-coated magnetic beads treated with biotinylated small molecule ligands for 30 minutes at room temperature which generated affinity resins for the kinase assays. The liganded beads were blocked with excess biotin and washed with blocking buffer (SeaBlock (Pierce), 1% BSA, 0.05% Tween 20, 1 mM DTT) to remove unbound ligand and to reduce non-specific phage binding. […] Test compounds were prepared as 40× stocks in 100% DMSO and diluted directly into the assay (Final DMSO concentration=2.5%). All reactions were performed in polypropylene 384-well plates in a final volume of 0.04 ml. […] The beads were then re-suspended in elution buffer (1×PBS, 0.05% Tween 20, 0.5 μM non-biotinylated affinity ligand) and incubated at room temperature with shaking for 30 minutes. The kinase concentration in the eluates was measured by quantitative PCR. An illustration of the kinase interaction process is presented below. Kd/IC50 values were determined using a standard dose response curve using the hill equation. Curves were fitted using a non-linear least square fit with the Levenberg-Marquardt algorithm.
(§2) The compound(s) were screened at 10 μM and results for primary screen binding interactions are reported as ‘% Ctrl’, where lower numbers indicate stronger hits in the matrix.

The next test deals with T2, c-Kit(D820Y) (Homo sapiens, UniProt P10721, D820Y).
T2 construct: made in house
The experiment in a line: Kinase competition binding assay, c-Kit(D820Y). As to conditions: Table 1 kinase panel. On the procedure:
as §1, §2

In another test the target is EFGR(L858R, T7790M). The test is described as follows: Kinase competition binding assay, EFGR(L858R, T7790M). As to conditions: Table 1 kinase panel. As to the method:
as §1, §2

In a further test the target is T3, EPHB6 (Homo sapiens, UniProt O15197).
T3 construct: made in house
T3 sequence (O15197 32-1021): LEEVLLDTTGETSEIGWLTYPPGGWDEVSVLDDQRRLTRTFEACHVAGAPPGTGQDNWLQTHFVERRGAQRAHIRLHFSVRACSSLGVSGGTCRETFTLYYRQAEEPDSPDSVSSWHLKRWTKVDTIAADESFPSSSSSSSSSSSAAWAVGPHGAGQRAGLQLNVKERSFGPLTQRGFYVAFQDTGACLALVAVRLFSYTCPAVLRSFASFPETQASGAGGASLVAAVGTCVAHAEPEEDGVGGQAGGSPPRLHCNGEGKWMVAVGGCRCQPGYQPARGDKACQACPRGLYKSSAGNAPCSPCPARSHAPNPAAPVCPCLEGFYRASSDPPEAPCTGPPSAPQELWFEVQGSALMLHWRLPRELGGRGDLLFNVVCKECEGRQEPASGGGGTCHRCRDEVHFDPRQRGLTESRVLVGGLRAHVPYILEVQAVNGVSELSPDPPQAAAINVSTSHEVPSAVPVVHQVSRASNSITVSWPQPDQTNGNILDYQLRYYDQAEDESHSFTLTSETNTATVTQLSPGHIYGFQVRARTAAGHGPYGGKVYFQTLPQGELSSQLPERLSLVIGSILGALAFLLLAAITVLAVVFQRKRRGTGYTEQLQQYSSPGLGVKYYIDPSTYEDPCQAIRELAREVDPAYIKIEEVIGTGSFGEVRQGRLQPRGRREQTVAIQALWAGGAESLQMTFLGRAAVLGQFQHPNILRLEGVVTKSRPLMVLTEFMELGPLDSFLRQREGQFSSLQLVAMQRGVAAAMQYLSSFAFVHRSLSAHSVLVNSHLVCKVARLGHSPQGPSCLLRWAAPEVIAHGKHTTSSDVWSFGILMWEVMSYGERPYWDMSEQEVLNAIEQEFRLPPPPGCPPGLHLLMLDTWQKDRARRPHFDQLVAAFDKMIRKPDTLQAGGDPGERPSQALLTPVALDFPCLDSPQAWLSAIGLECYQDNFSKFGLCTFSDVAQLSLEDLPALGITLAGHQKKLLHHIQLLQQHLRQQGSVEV
The test is described as follows: Kinase competition binding assay, EPHB6. The following applies: Table 1 kinase panel. On the procedure: as §1, §2

The target in the next test is T4, PASK (Homo sapiens, UniProt Q96RG2).
T4 construct: made in house
The experiment in a line: Kinase competition binding assay, PASK. The following applies: Table 1 kinase panel. As to the method: as §1, §2

Another test has as its target T5, PIM-1 (Homo sapiens, UniProt P11309).
T5 construct: full-length constructs were used for small, single domain kinases; T7 phage fusion (most assays) or DNA tag for qPCR (HEK-293-made kinases); made in house
The experiment in a line: Kinase competition binding assay, PIM-1. As to conditions: Table 1 kinase panel. As to the method: as §1, §2

In another test the target is T6, SIRT-1 (Homo sapiens, UniProt Q96EB6).
T6 sequence (Q96EB6 1-747): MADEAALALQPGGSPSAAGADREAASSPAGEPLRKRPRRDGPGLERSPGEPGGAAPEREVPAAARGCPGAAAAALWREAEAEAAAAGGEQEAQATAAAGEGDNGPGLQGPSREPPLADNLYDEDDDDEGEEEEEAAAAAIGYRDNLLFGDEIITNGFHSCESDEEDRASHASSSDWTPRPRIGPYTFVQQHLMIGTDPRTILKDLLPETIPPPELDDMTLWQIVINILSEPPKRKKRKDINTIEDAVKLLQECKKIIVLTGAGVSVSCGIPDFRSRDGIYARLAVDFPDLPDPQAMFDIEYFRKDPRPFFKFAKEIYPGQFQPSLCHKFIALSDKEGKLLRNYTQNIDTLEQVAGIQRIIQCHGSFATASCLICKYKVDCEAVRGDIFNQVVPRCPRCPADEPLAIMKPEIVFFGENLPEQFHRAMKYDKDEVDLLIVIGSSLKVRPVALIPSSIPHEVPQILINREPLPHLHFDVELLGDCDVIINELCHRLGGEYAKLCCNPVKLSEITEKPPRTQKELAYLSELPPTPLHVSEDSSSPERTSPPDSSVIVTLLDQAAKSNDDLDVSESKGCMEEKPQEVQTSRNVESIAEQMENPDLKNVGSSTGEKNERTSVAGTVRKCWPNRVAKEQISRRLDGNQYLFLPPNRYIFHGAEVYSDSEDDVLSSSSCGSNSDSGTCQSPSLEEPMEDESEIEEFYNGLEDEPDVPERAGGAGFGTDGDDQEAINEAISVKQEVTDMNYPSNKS
The experiment in a line: Inhibition of sirtuins, SIRT-1. Format: biochemical. As to conditions: Table 3 SIRT. The text has this:
Inhibition of Sirtuins, Matrix Metalloproteinase, Bromodomains was Also Confirmed Using Standard Protocols and the Results are Present in Table 2.

The record followed here is patent publication US20180353462A1, “[…] AGENTS […] FLAVONOID DERIVATIVES TARGETING KINASES, SIRTUINS AND ONCOGENIC AGENTS FOR THE TREATMENT OF CANCERS” (priority 2015, published 2018).

The term IC50 denotes the midpoint of a concentration-inhibition curve. Higher therefore signals weaker potency in that assay.

The structures appear in SMILES notation. A value given as a limit tells only on which side of the number the result lay.

For the molecule `COc1cc(-c2cc(=O)c3c(O)c(C/C=C(\C)CCC=C(C)C)c(O)cc3o2)ccc1O` [FBL-03A], the 50% inhibitory concentration (IC50) on CK2a2 is 350 nM; on c-Kit(D820Y), more than 20000 nM; on EFGR(L858R, T7790M), more than 20000 nM; at EPHB6, more than 20000 nM; on PASK, more than 20000 nM; on PIM-1, more than 20000 nM. Further, half-maximal inhibition on SIRT-1 (IC50) was put at 19 µM.
In the case of `COc1ccc(-c2cc(=O)c3c(O)c(C/C=C(\C)CCC=C(C)C)c(O)cc3o2)cc1OC` [FBL-03D], the half-maximal inhibitory concentration (IC50) at CK2a2 was more than 30000 nM; at c-Kit(D820Y), more than 30000 nM; on EFGR(L858R, T7790M) it was more than 30000 nM; at EPHB6 it was more than 30000 nM; at PASK, more than 30000 nM; at PIM-1, more than 30000 nM.
Consider `COc1cc(-c2cc(=O)c3c(O)c(CC=C(C)C)c(O)cc3o2)ccc1O` [FBL-03B], for which the IC50 on CK2a2 was 477 nM; on c-Kit(D820Y), 1280 nM; at EFGR(L858R, T7790M), more than 1000 nM; at EPHB6, more than 1000 nM; on PASK it was 2060 nM; against SIRT-1 it was 27.4 µM.
Turning to `COc1cc(-c2cc(=O)c3c(O)cc(O)c(C/C=C(\C)CCC=C(C)C)c3o2)ccc1O` [FBL-03C], the IC50 at CK2a2 is 19 nM; on c-Kit(D820Y), more than 20000 nM; at EFGR(L858R, T7790M) it was 680 nM; on EPHB6, 270 nM; at PASK it was more than 20000 nM; at PIM-1 it was more than 1000 nM. On SIRT-1, this molecule displayed an IC50 of 39.5 µM.
Take `COc1cc(-c2cc(=O)c3c(O)cc(O)c(CC=C(C)C)c3o2)ccc1O` [FBL-03G]: the IC50 on CK2a2 was 9.7 nM; on c-Kit(D820Y) it was 113 nM; on EFGR(L858R, T7790M) it was more than 1000 nM; at EPHB6, more than 1000 nM; on PASK, 116 nM; on PIM-1, 78 nM.
